{"source": "patent US4690949A", "about": "“Therapeutic drug for dementia” (priority 1985, dated 1987)", "key": {"[1]": {"tested_on": "patients with dementia", "experiment": "Side effects in clinical study", "format": "in vivo", "method": "(§1) Administration schedule of L-Threo-DOPS and schedule of clinical evaluation are as follows: [drawing 3]\n(§2) Threo-DOPS were administered as follows; immediately after meals at 8:00, 12:00 and 17:00. Various psychological tests were performed at 10:00. The evaluations were performed on the day before and after administration of Threo-DOPS."}, "[2]": {"experiment": "Acute toxicity LD50 in mice", "conditions": "mouse, in vivo"}, "[3]": {"tested_on": "decarboxylase", "conditions": "compared with L-DOPA; cited from earlier work"}, "[4]": {"tested_on": "patients with dementia", "experiment": "Overall clinical evaluation of effectiveness in dementia", "format": "in vivo", "text": "(§3) We have used following various tests: WAIS, Hasegawa's scale for intelligence, Osaka University tests for activity of daily life as well as mental functions, and records of psychological states. Furthermore, free association of letters and categories, paired memory test, Bourdon's test could safely be used to evaluate intelligence of demented patients, even with handicaps in hands or legs. We have done each test 4 times per patient at each point to evaluate the patient's mental state and thus this made us possible to get satisfactory statistical analysis.\nDementia could be classified into various clinical types according to the ethiology; such as Alzheimer's disease (AZ), senile dementia of Alzheimer type (SDAT), dementia due to the cerebral vascular diseases. We included these various types of dementia in this study.\nas §1, §2\nEvaluations were made as described below or by the methods used commonly."}, "[5]": {"tested_on": "parkinsonian patients", "experiment": "Clinical studies on parkinsonian patients", "format": "in vivo"}, "[6]": {"tested_on": "aromatic L-amino acid decarboxylase", "conditions": "cited from earlier work"}, "[7]": {"experiment": "Clinical comparison of L-isomer and DL-form activity", "format": "in vivo"}, "[8]": {"tested_on": "patients with dementia", "experiment": "Hasegawa's scale for intelligence", "format": "in vivo", "parameters": "key to Hasegawa (change after treatment): improved; .dwnarw.: aggravated; →: unchanged", "conditions": "for Hasegawa (change after treatment): 10 percent change from pretreatment baseline score", "text": "as §3, §1, §2\nAn increase or decrease of 10 percent from the pretreatment baseline score was regarded as \"improved\" or \"aggravated\"."}, "[9]": {"tested_on": "patients with dementia", "experiment": "Bourdon's test (Bourdon's delection test)", "format": "in vivo", "parameters": "key to Bourdon's test (change after treatment): improved; .dwnarw.: aggravated; →: unchanged", "text": "as §3, §1, §2\n3. Bourdon's delection test:\nMatsumoto K and Samezima K: Introduction to Clinical Psychology Tests, Igaku Shuppan Sha (Tokyo), 1977, pp. 83-87\nIn this test, the original method was modified by enlarging the chart to make it easier for patients to see and conducting 4 test runs starting at different lines to investigate how far the task could be done in 30 seconds."}, "[10]": {"tested_on": "patients with dementia", "experiment": "Digit symbol test (modified WAIS)", "format": "in vivo", "text": "as §3, §1, §2\nThe original method of WAIS was partially modified. The test was repeated 4 times and counted time-in seconds which was required to finish one line or checked how far the subject could go along one line in 30 seconds."}, "[11]": {"tested_on": "patients with dementia", "experiment": "Free association (letters and categories)", "format": "in vivo", "parameters": "key to Free association, Letter / Free association, Category: improved; .dwnarw.: aggravated; →: unchanged", "text": "as §3, §1\nThreo-DOPS were administered as follows; immediately after meals at 8:00, 12:00 and 17:00. Various psychological tests were performed at 10:00. The evaluations were performed on the day before and after administration of Threo-DOPS. […]\nIn this test, the subject was asked to say what would occur in mind by free association in response to the 4 letters of \" \" (a), \" \" (ka), \" \" (sa) and \" \" (ha) and the four categories of \"fruits\" or \"vegetables\", \"flowers or trees\", \"animals\" and \"countries of the world\" within 90 seconds and the number of words every 30 seconds was counted."}, "[12]": {"tested_on": "patients with dementia", "experiment": "Related words paired memory test", "format": "in vivo", "parameters": "key to Related words paired memory test (change after treatment): improved; .dwnarw.: aggravated; →: unchanged", "text": "as §3, §1, §2\nThis retention test using 10 pairs of related words was conducted in 4 trials and the results were compared before and after the treatment."}, "[13]": {"tested_on": "patients with dementia", "experiment": "P300 auditory evoked brain potential", "format": "in vivo", "parameters": "key: +: appeared; -: disappeared", "method": "as §1, §2\nWhen two kinds of auditory stimuli are given randomly, a positive brain potential (P300) appears with a latency of about 300 msec in normal subjects and this response has been considered to reflect gnostic function. [Sutton, S. et al.: Science 150, 1187-1188 (1965)].\nUsing the method of Goodin, D. S. et al., the present inventors asked the subject to hear sounds of 1000 Hz and also 2000 Hz randomly given at intervals of about 1 second and to count the sounds of 2000 Hz which appeared 15% of the total number of sounds which were 400. The evoked potentials were averaged and totalled for each 1000 Hz and 2000 Hz stimulations and the latency and the amplitude of P300 were measured."}, "[14]": {"tested_on": "patients with dementia", "experiment": "N test (N mental function test)", "format": "in vivo", "parameters": "key to N test (change after treatment): improved; .dwnarw.: aggravated; →: unchanged", "text": "as §3, §1, §2\nInoue, O.: Medical Journal of the Osaka University 26, 375-394 (1974)"}, "[15]": {"conditions": "Case 7, left thalamic hemorrhage (case report)"}, "[16]": {"conditions": "Case 9, cerebral infarction (case report)"}, "[17]": {"conditions": "Case 1, Alzheimer's disease (case report)"}}, "note": "“Also recorded” adds a separate entry of the source.", "data": [{"smiles": "N[C@H](C(=O)O)[C@H](O)c1ccc(O)c(O)c1", "note": "(relative stereo) [DL-Threo-DOPS]", "values": [{"measurement": "Side effects (clinically)", "setting": "[1]; human, in vivo", "value": "almost no side effect has been observed"}, {"measurement": "LD50", "setting": "[2]; ip", "value": "~10000", "unit": "mg/kg"}, {"measurement": "LD50", "setting": "[2]; po", "value": "≥ 10000", "unit": "mg/kg"}]}, {"smiles": "N[C@H](C(=O)O)[C@H](O)c1ccc(O)c(O)c1", "note": "(relative stereo) [Threo-DOPS, threo-3,4-dihydroxyphenylserine]", "values": [{"measurement": "Effectiveness of combined use of DCI", "setting": "[3]", "value": "not so effective as that for L-DOPA"}, {"measurement": "Side effects", "setting": "[1]; human, in vivo", "value": "without any appreciable side effects"}, {"measurement": "Effect on symptoms of dementia", "setting": "[4]; summary statement", "value": "improving effect on some symptoms of dementia"}, {"measurement": "Effectiveness as a NE precursor", "setting": "[5]", "value": "effectiveness of Threo-DOPS as a NE precursor"}, {"measurement": "Conversion to norepinephrine (NE)", "setting": "[6]; in the living body", "value": "decarboxylated by an action of an aromatic L-amino acid decarboxylase existing in the living body and converted into norepinephrine (NE); also recorded: gradually converted to NE in the living body"}, {"measurement": "Rate of decarboxylation relative to L-DOPA", "setting": "[6]; previous study of the present applicants", "value": "considerably smaller than that of L-DOPA"}]}, {"smiles": "N[C@@H](Cc1ccc(O)c(O)c1)C(=O)O", "note": "[L-DOPA, reference compound]", "values": [{"measurement": "Decarboxylation to dopamine", "setting": "[6]; in the living body", "value": "decarboxylated to the corresponding catecholamine, dopamine"}]}, {"smiles": "N[C@H](C(=O)O)[C@H](O)c1ccc(O)c(O)c1", "note": "[L-Threo-DOPS]", "values": [{"measurement": "Side effects", "setting": "[1]; Case 9, cerebral infarction", "value": "No remarkable side effects were found"}, {"measurement": "Side effects (clinically)", "setting": "[1]; human, in vivo", "value": "almost no side effect has been observed"}, {"measurement": "Overall evaluation", "setting": "[4]; Case 1, Alzheimer's disease", "value": "moderately improved"}, {"measurement": "Global evaluation", "setting": "[4]; Case 7, left thalamic hemorrhage", "value": "markedly improved"}, {"measurement": "Global evaluation", "setting": "[4]; Case 9, cerebral infarction", "value": "moderately improved"}, {"measurement": "Evaluation parameters showing aggravation", "setting": "[4]; Cases 1 to 9, Table 1", "value": "only a few evaluation parameters showed aggravation"}, {"measurement": "Subjects showing improvements in one or more tests", "setting": "[4]; Cases 1 to 9, Table 1", "value": "all subjects but Case 6 showed improvements in one or more tests"}, {"measurement": "Overall evaluation: efficacy against symptoms of patients with dementia", "setting": "[4]; as a whole", "value": "had efficacy against symptoms of patients with dementia"}, {"measurement": "LD50", "setting": "[2]; ip", "value": "~10000", "unit": "mg/kg"}, {"measurement": "LD50", "setting": "[2]; po", "value": "≥ 10000", "unit": "mg/kg"}, {"measurement": "Effect of L-isomer at half the amount of the DL-mixture", "setting": "[7]; administered in half the amount of the DL-mixture", "value": "nearly the same effect as the DL-mixture"}, {"measurement": "Activity of L-isomer relative to DL-form", "setting": "[7]; clinical study", "value": "twice as active as the DL-form"}, {"measurement": "Hasegawa (change after treatment)", "setting": "[8]; Case 3, CI", "value": ".dwnarw."}, {"measurement": "Hasegawa (change after treatment)", "setting": "[8]; Case 6, AZ/CI, person", "value": "→"}, {"measurement": "Hasegawa's scale", "setting": "[8]; [15]", "value": "Improvements were obtained"}, {"measurement": "Hasegawa's scale", "setting": "[8]; [16]", "value": "Improvements were found"}, {"measurement": "Bourdon's test (change after treatment)", "setting": "[9]; Case 1, AZ", "value": "→"}, {"measurement": "Bourdon's test (change after treatment)", "setting": "[9]; Case 2, AZ", "value": "→"}, {"measurement": "Bourdon's test (change after treatment)", "setting": "[9]; Case 3, CI", "value": "→"}, {"measurement": "Bourdon's test, statistics", "setting": "[9]; Case 4, CI", "value": "** (P<0.02)"}, {"measurement": "Bourdon's test (change after treatment)", "setting": "[9]; Case 6, AZ/CI, person", "value": "→"}, {"measurement": "Bourdon's test (change after treatment)", "setting": "[9]; Case 9, CI", "value": "→"}, {"measurement": "Digit symbol test, statistics", "setting": "[10]; Case 1, AZ", "value": "* (P<0.05)"}, {"measurement": "Digit symbol test", "setting": "[10]; [17]", "value": "Improvements were found"}, {"measurement": "Free association, Category", "setting": "[11]; Case 2, AZ", "value": "→"}, {"measurement": "Free association, Letter", "setting": "[11]; Case 2, AZ", "value": "→"}, {"measurement": "Free association, Category", "setting": "[11]; Case 3, CI", "value": "→"}, {"measurement": "Free association, Category", "setting": "[11]; Case 4, CI", "value": "→"}, {"measurement": "Free association, Letter", "setting": "[11]; Case 4, CI", "value": "→"}, {"measurement": "Free association, Category", "setting": "[11]; Case 5, CI", "value": "→"}, {"measurement": "Free association, Letter", "setting": "[11]; Case 5, CI", "value": "→"}, {"measurement": "Free association, Category", "setting": "[11]; Case 6, AZ/CI, person", "value": "→"}, {"measurement": "Free association, Letter", "setting": "[11]; Case 6, AZ/CI, person", "value": "→"}, {"measurement": "Free association of things", "setting": "[11]; [15]", "value": "Improvements were obtained"}, {"measurement": "Free association, Category", "setting": "[11]; Case 9, CI", "value": "→"}, {"measurement": "Free association, Letter", "setting": "[11]; Case 9, CI", "value": "→"}, {"measurement": "Related words paired memory test, statistics", "setting": "[12]; Case 1, AZ", "value": "*** (P<0.01)"}, {"measurement": "Related words paired memory test", "setting": "[12]; [17]", "value": "Improvements were found"}, {"measurement": "Related words paired memory test, statistics", "setting": "[12]; Case 2, AZ", "value": "*** (P<0.01)"}, {"measurement": "Related words paired memory test (change after treatment)", "setting": "[12]; Case 4, CI", "value": "→"}, {"measurement": "Related words paired memory test (change after treatment)", "setting": "[12]; Case 5, CI", "value": ".uparw."}, {"measurement": "Related words paired memory test, statistics", "setting": "[12]; Case 5, CI", "value": "* (P<0.05)"}, {"measurement": "Related words paired memory test (change after treatment)", "setting": "[12]; Case 6, AZ/CI, person", "value": "→"}, {"measurement": "Related words paired memory test, statistics", "setting": "[12]; Case 9, CI", "value": "** (P<0.02)"}, {"measurement": "Related words paired memory test", "setting": "[12]; [16]", "value": "Improvements were found"}, {"measurement": "P300", "setting": "[13]; Case 2, AZ", "value": "+"}, {"measurement": "P300", "setting": "[13]; Case 3, CI", "value": "-"}, {"measurement": "P300", "setting": "[13]; Case 4, CI", "value": "+"}, {"measurement": "P300", "setting": "[13]; Case 5, CI", "value": "-"}, {"measurement": "P300", "setting": "[13]; Case 6, AZ/CI, person", "value": "-"}, {"measurement": "P300", "setting": "[13]; [15]", "value": "could not be observed before the treatment, appeared after the treatment"}, {"measurement": "P300", "setting": "[13]; Case 9, CI", "value": "-"}, {"measurement": "N test (change after treatment)", "setting": "[14]; Case 5, CI", "value": "→"}, {"measurement": "N test (change after treatment)", "setting": "[14]; Case 6, AZ/CI, person", "value": "→"}, {"measurement": "N mental function test", "setting": "[14]; [15]", "value": "Improvements were obtained"}, {"measurement": "N mental function test", "setting": "[14]; [16]", "value": "Improvements were found"}]}]}
